Assay results taken from patent US5053431A, “Derivatives of chrysophanol as topoisomerase II inhibitors” (Sloan-Kettering Institute For Cancer Research, priority 1990, dated 1991).
Values after ≈ are worked out from the molar mass of the structure shown. Where two headings read alike, the source gives them in different places.

Experiments:
[1] = test system: DNA (native and thermally denatured); assay: Spectrophotometric study of DNA interaction; type: binding, calf thymus; conditions: for interaction with DNA: absorption spectra, native and thermally denatured DNA; for interaction with DNA on increase of salt concentration: Na concentration increased from 0.01 to 0.1 M
Procedure: Some representative compounds were studied for their ability to interact with nucleic acids in solution by comparison of the electronic spectrum of drug alone with that of the drug in the presence of an excess of nucleic acid. All drugs studied have an absorption band in the visible region, separate from the absorption band of the nucleic acids, and therefore any changes in band intensity and position were indicative of drug chromophore-DNA interaction.
Absorption spectra were measured with an IBM 9410 UV-visible spectrometer interfaced to an HP 9826 computer. Small volumes of the stock drug solutions (2 mg/mL in Me2 SO) were added to 2 mL of buffer (0.01 or 0.1 M NaCl, 5 mM Hepes, pH 7) to obtain a final drug concentration of 5-15 μM, or to the solution of native or thermally denatured DNA (0.2 and 0.1 mM, respectively) in the buffer. After incubation at room temperature for 10 min, the spectra were recorded in the 300-600 nm range (increment 1 nm) and corrected by subtracting the spectrum of the blank which was measured before addition of the drug.

[2] = test system: [^3 H]TdR incorporation into DNA in HL-60 cells; assay: Inhibition of [3H]TdR incorporation into DNA in HL-60 cells (initial 30 min); type: cell-based, human; conditions: for IC50: HL-60, initial 30 min exposure, read-out: ID50, M (HL-60 TdR into DNA (B)); for B/A: ratio of ID50 for TdR incorporation (B) to ID50 for cell growth (A), HL-60
Procedure: For precursor incorporation studies, each compound at four to six concentrations (0.2% DMSO) was preincubated with HL-60 cells (2.5×10^6 /Ml) for 15 min prior to the addition of [^3 H-methyl]TdR (1 μCi, 0.15 nmol/mL) and was incubated for 30 min. […] The incorporation of radioactivity in DNA in the absence of an analogue in the presence of DMSO was used as a control.

[3] = test system: human leukemia HL-60 cells; assay: HL-60 cell growth inhibition (72 h); type: cell-based; conditions: HL-60, 72 h, read-out: ID50, M [HL-60 cell growth (72 h)] (A)
Procedure: For cell growth inhibition studies, HL-60 cells […]) were grown in RPMI 1640 media at 37° C. in humidified 5% CO2 for 72 h. Viable cells were counted with the trypan blue exclusion method. The fractional inhibitions at four or five concentrations of compounds (in 0.2% DMSO) were analyzed with a median-effect plot (Chou, T.-C., et al., Adv. Enzyme Regul. 22:27 (1984)) by using a computer program. (Chou, J.; Chou, T.-C. Dose-Effect Analyses with Microcomputer. Quantitation of ID50, LD50, Synergism, Antagonism, Low-dose Risk, Receptor-Binding and Enzyme Kinetics; IBM-PC Series, Elsevier-Biosoft, Elsevier Scientific: Cambridge, U.K., (1986)). The median-effect concentration (ID50) was automatically determined for the x intercept of the median-effect plot. Cell growth in the absence of a compound and in the presence of DMSO was used as a control. DMSO (0.2%) alone inhibited cell growth 3.8±1.2% during the 72-h incubation period.

[4] = test system: mouse leukemia L1210 cells; assay: Inhibition of L1210 cell growth; type: cell-based
Procedure: Preliminary biological data for inhibiting cell growth of murine L1210 leukemic cells and human acute promyelocytic leukemia cells (HL-60) during 72 h of exposure to the compounds are given in Table IV. The potencies for inhibiting [^3 H]TdR incorporation into DNA in HL-60 cells during the initial 30-min period are also given in Table IV. It is interesting to note that 1,8-di-O-methyl derivatives are uniformly devoid of activity against L1210 leukemic cells. […] The B/A ratios allow an indirect estimation of whether or not cytotoxicities exerted by these analogues are primarily due to initial inhibition of DNA synthesis. […] Whether these analogues, like m-AMSA, ellipticine, or anthracyclines, act by inhibiting DNA topoisomerase II remains to be explored. […] Our preliminary experiments indicate that the compounds arrest cells in the S and/or G2 phases of the cell cycle (unpublished results).

cancer = conditions: literature; cited from earlier work
Topo II = assay: Heat reversal of protein-linked DNA complex; type: biochemical, human (HL-60); conditions: 65 degrees C
Procedure: This experiment concerns Topoisomerase II (Topo II)-mediated DNA cleavage activity induced by chrysophanol derivatives. 3-(bis[2-chloroethyl]amino)methyl-1,8-dihydroxy-9,10-anthraquinone (SK-31662) and 3-(2-hydroxyethylamino)methyl-1,8-dihydroxy-9,10-anthraquinone (SK-31694) have antileukemic activity with IC>es of 0.14 and 0.86 uM, respectively. SK-31662 and SK-31694 inhibit kDNA decatenation at 48 and 38 uM, respectively.

DNA topoisomerase II = conditions: literature; cited from earlier work
[5] = Mus musculus, L1210, Table I, read-out: ID50 (the source's name)
[6] = Mus musculus, L1210, Table I, read-out: ID50 (μg/mL)
[7] = Mus musculus, Table IV, L1210, 72 h exposure, read-out: ID50, M (L1210 cell growth)

Row | Compound | IC50 ([2]; Homo sapiens, 0.5 h) [µM] | IC50 ([3]; Homo sapiens, 0.2% DMSO) [µM] | IC50 [4, 7] [µM] | B/A [2] | other results
1 | 3-[(Diethylamino)methyl]-(or 8)-hydroxy-8(or 1)-methoxy-9,10-anthraquinone [Xa-1] | – | – | – | 2.7 | interaction with DNA [1]: interact with both native and thermally denatured DNA but more strongly with native DNA; IC50 [2]: 14 µM; IC50 ([3]; 0.2% DMSO): 5.2 µM; IC50 ([4]; Table II, antileukemic activity, read-out: L1210: ID50): 11.9 µM
2 | Cc1c2ccncc2c(C)c2c1[nH]c1ccc(O)cc12 [9-hydroxyellipticine] | – | – | – | – | anticancer activity (cancer): potent anticancer agent
3 | COc1cc([C@@H]2c3cc4c(cc3[C@@H](O[C@@H]3O[C@@H]5CO[C@@H](C)O[C@H]5[C@H](O)[C@H]3O)[C@H]3COC(=O)[C@H]23)OCO4)cc(OC)c1O [VP-16, etoposide, reference compound] | – | – | – | – | reversal of protein-linked DNA by heat (Topo II): reduced during 0.5 min exposure to 65 °C; stabilization of cleavable complex between DNA topoisomerase II and DNA (DNA topoisomerase II): stabilize the cleavable complex between DNA topoisomerase II and DNA
4 | NCc1cc(O)c2c(c1)C(=O)c1cccc(O)c1C2=O [XIa-8] | 25 | 11 | 8.5 | 2.3 | –
5 | CC(C)NC(=O)OCCN(CCOC(=O)NC(C)C)Cc1cc(O)c2c(c1)C(=O)c1cccc(O)c1C2=O [XIa-12] | 17 | 27 | 27 | 0.63 | –
6 | O=C1c2cccc(O)c2C(=O)c2c(O)cc(CN3CCCC3)cc21 [XIa-13] | 10 | 2.1 | 1.6 | 4.8 | –
7 | COc1cc(O)c2c(c1)C(=O)c1cc(CN(CCCl)CCCl)cc(O)c1C2=O [XIb-3, 3-[N,N-bis(2-chloroethyl)amino]methyl-1,8-dihydroxy-6-methoxy-9,10-anthraquinone] | – | – | – | 19.7 | interaction with DNA on increase of salt concentration [1]: lost the ability to interact with DNA; IC50 [2]: 12 µM; IC50 ([3]; 0.2% DMSO): 0.61 µM; ID50 ([4]; Table I): 0.010 µg/mL (≈ 0.0236 µM); IC50 ([4]; Table I, read-out: ID50 (the source's name)): 0.023 µM
8 | COc1cc(O)c2c(c1)C(=O)c1cc(CNCCCl)cc(O)c1C2=O [XIb-7, 3-[N-(2-chloroethyl)amino]methyl-1,8-dihydroxy-6-methoxy-9,10-anthraquinone] | 220 | – | – | 23.9 | reversal of DNA induced changes in absorption spectra by Me2SO ([1]; Me2 SO to 1:1 v/v): could be reversed by addition of Me2 SO; interaction with DNA on increase of salt concentration [1]: lost the ability to interact with DNA; IC50 ([3]; Homo sapiens): 9.2 µM; IC50 ([4]; Mus musculus, L1210, 72 h, read-out: ID50, M (L1210 cell growth)): 18 µM
9 | COc1cccc2c1C(=O)c1c(O)c3c(c(O)c1C2=O)C[C@@](O)(C(=O)CO)C[C@@H]3O[C@H]1C[C@H](N)[C@H](O)[C@H](C)O1 [adriamycin] | – | – | – | – | stabilization of cleavable complex between DNA topoisomerase II and DNA (DNA topoisomerase II): stabilize the cleavable complex between DNA topoisomerase II and DNA
10 | Cc1c2ccncc2c(C)c2c1[nH]c1ccccc12 [ellipticine] | – | – | – | – | stabilization of cleavable complex between DNA topoisomerase II and DNA (DNA topoisomerase II): stabilize the cleavable complex between DNA topoisomerase II and DNA
11 | COc1cc(NS(C)(=O)=O)ccc1Nc1c2ccccc2nc2ccccc12 [m-AMSA, 4'-(9-acridinylamino) methanesulfon-m-aniside] | – | – | – | – | effect on DNA topoisomerase II reactions (DNA topoisomerase II): inhibits the topoisomerization and catenation reactions of DNA topoisomerase II

Now from value to compound, other results behind:

Row | IC50 ([2]; Homo sapiens, 0.5 h) [µM] | IC50 ([3]; Homo sapiens, 0.2% DMSO) [µM] | IC50 [4, 7] [µM] | Compound | B/A [2] | other results
12 | 14 | 1.8 | 280 | CCN(CC)Cc1cc(O)c2c(c1)C(=O)c1cccc(O)c1C2=O [XIa-1, 3-[N,N-diethylamino)methyl-1,8-dihydroxy-9,10-anthraquinone] | 7.8 | interaction with DNA [1]: interact with both native and thermally denatured DNA but more strongly with native DNA; IC50 [4, 5]: 2.8 µM; IC50 [4, 6]: 0.99 µg/mL; IC50 ([4]; Mus musculus, L1210, Table II, antileukemic activity, read-out: L1210: ID50): 2.75 µM
13 | 18 | 8.7 | – | CCNCc1cc(O)c2c(c1)C(=O)c1cccc(O)c1C2=O [XIa-5, 3-[N-ethylamino)methyl-1,8-dihydroxy-9,10-anthraquinone] | 2.1 | IC50 [4, 5]: 0.77 µM; IC50 [4, 6]: 0.26 µg/mL
14 | 9.3 | 2.7 | 2.2 | CN(C)Cc1cc(O)c2c(c1)C(=O)c1cccc(O)c1C2=O [XIa-9] | 3.3 | –
15 | 25 | 4.1 | 4.6 | CCCCNCc1cc(O)c2c(c1)C(=O)c1cccc(O)c1C2=O [XIa-10] | 6.1 | –
16 | 16 | 3.2 | 0.67 | O=C1c2cccc(O)c2C(=O)c2c(O)cc(CNCCCO)cc21 [XIa-11] | 5.0 | –
17 | 63 | 2.8 | 4 | O=C1c2cccc(O)c2C(=O)c2c(O)cc(CN3CCCCC3)cc21 [XIa-14] | 22.5 | –
18 | 43 | 4.8 | 7.4 | O=C1c2cccc(O)c2C(=O)c2c(O)cc(Cn3ccnc3)cc21 [XIa-15] | 9.0 | –
19 | 35 | 3.4 | 1.2 | CCN(CC)Cc1cc(O)c2c(c1)C(=O)c1cc(OC)cc(O)c1C2=O [XIb-1, 3-(N,N-diethylamino)methyl-1,8-dihydroxy-6-methoxy-9,10-anthraquinone] | 10.3 | IC50 [4, 5]: 1.16 µM; IC50 [4, 6]: 0.51 µg/mL
20 | 45 | 6.6 | 14 | COc1cc(O)c2c(c1)C(=O)c1cc(CN(CCO)CCO)cc(O)c1C2=O [XIb-2, 3-[N,N-bis(2-hydroxyethyl)amino]methyl-1,8-dihydroxy-6-methoxy-9,10-anthraquinone] | 5.2 | interaction with DNA [1]: interact with both native and thermally denatured DNA but more strongly with native DNA; IC50 [4, 5]: 13.7 µM; IC50 [4, 6]: 5.8 µg/mL
21 | 13 | 2.1 | 0.72 | CCNCc1cc(O)c2c(c1)C(=O)c1cc(OC)cc(O)c1C2=O [XIb-5, 3-(N-ethylamino)methyl-1,8-dihydroxy-6-methoxy-9,10-anthraquinone] | 6.2 | IC50 [4, 5]: 0.44 µM; IC50 [4, 6]: 0.18 µg/mL
22 | 12 | 1.6 | 0.5 | COc1cc(O)c2c(c1)C(=O)c1cc(CNCCO)cc(O)c1C2=O [XIb-6, 3-[N-(2-hydroxyethyl)amino]methyl-1,8-dihydroxy-6-methoxy-9,10-anthraquinone] | 7.5 | interaction with DNA [1]: interact with both native and thermally denatured DNA but more strongly with native DNA; IC50 [4, 5]: 0.19 µM; IC50 [4, 6]: 0.072 µg/mL
